Converted amounts (≈) assume the structure as drawn.

Chain of E. coli Enopyruvyl-UPD-N-acetylglucosamine reductase, Mur B (P08373 whole entry): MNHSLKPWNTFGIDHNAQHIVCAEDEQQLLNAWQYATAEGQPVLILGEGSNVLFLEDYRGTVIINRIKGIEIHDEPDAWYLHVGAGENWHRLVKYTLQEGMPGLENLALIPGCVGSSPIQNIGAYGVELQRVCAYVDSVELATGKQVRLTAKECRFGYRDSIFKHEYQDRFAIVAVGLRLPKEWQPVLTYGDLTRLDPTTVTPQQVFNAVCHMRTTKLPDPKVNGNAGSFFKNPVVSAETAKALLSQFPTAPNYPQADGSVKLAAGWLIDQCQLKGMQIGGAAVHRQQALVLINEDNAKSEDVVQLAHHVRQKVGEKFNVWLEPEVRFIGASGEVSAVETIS

The first assay addresses E. coli Enopyruvyl-UPD-N-acetylglucosamine reductase, Mur B (Escherichia coli, UniProt P08373). Briefly: biochemical. The settings on record: (E) E. coli enzyme.
As to `O=C1O/C(=C\c2cccc(-c3cccc(Cl)c3)c2)C(O)=C1c1cccc(Cl)c1` [Example 134], the “MurB IC50” value was 4 µg/mL.
For `O=C1O/C(=C\c2cccc(-c3cc(Cl)cc(Cl)c3)c2)C(O)=C1c1cc(Cl)cc(Cl)c1` [Example 136], the “MurB IC50” value is 3 µg/mL.
In the case of `O=C1O/C(=C\c2ccccc2-c2ccc(Cl)c(Cl)c2)C(O)=C1c1ccc(Cl)c(Cl)c1` [Example 141], the “MurB IC50” value is listed as 2 (E); 2 (S) μg/mL.
In the case of `O=C1O/C(=C\c2cc(C(F)(F)F)ccc2Cl)C(O)=C1c1ccc(N2CCOCC2)c(F)c1` [Example 142], the “MurB IC50” value came to 10 µg/mL.

The same assay, now with this note: (E) E. coli enzyme; read-out: MurB IC50 (converted).
One may read the IC50 as the concentration that inhibits the measured activity by half. In the case of `O=C1O/C(=C\c2ccccc2-c2ccc(Cl)cc2)C(O)=C1c1ccc(Cl)cc1` [Example 137], the IC50 is 51.3 µM.
For the molecule `O=C1O/C(=C\c2ccc(Cl)cc2)C(O)=C1c1ccc(-c2ccccc2)c(F)c1` [Example 138], the half-maximal inhibitory concentration (IC50) is 56 µM.
On to `O=C1O/C(=C\c2ccccc2-c2cccc(Cl)c2)C(O)=C1c1cccc(Cl)c1` [Example 140], for which the IC50 is 9.77 µM.
Regarding `O=C1O/C(=C\c2ccc(-c3ccccc3)cc2)C(O)=C1c1csc2ccccc12` [Example 143], the IC50 was 17.7 µM.
Take `O=C1O/C(=C\c2ccc(-c3ccccc3)cc2)C(O)=C1c1cccs1` [Example 144]: the IC50 is 57.7 µM.
As for `O=C1O/C(=C\c2cccc3ccccc23)C(O)=C1c1ccc(-c2ccccc2)cc1` [R=H, R1=4-biphenyl, R2=1-naphthyl], the IC50 is 12.8 µM.

A further assay has as its target T1, S. aureus Enopyruvyl-UPD-N-acetylglucosamine reductase, Mur B (Staphylococcus aureus, UniProt P61431).
T1 sequence (P61431 1-307): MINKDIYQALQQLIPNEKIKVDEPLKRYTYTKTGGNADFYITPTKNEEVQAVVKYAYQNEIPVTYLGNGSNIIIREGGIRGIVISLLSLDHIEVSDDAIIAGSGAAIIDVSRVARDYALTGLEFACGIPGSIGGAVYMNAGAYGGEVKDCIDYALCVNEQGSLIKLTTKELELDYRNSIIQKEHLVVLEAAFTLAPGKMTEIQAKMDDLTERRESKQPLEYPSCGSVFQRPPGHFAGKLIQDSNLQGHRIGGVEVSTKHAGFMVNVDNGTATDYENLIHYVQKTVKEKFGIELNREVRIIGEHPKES
As to the kind of experiment: biochemical.
Settings: not given
For the molecule `O=C1O/C(=C\c2cccc3ccccc23)C(O)=C1c1ccc(-c2ccccc2)cc1` [R=H, R1=4-biphenyl, R2=1-naphthyl], half-maximal inhibition (IC50) required 25.6 µM.

Staying with this assay, now noted: (S) S. aureus enzyme.
`O=C1O/C(=C\c2cc(C(F)(F)F)ccc2Cl)C(O)=C1c1ccc(N2CCOCC2)c(F)c1` [Example 142]: the “MurB IC50” value was 21 µg/mL.

The same assay, now with this note: (S) S. aureus enzyme; read-out: MurB IC50 (converted).
In the case of `O=C1O/C(=C\c2cccc(-c3cccc(Cl)c3)c2)C(O)=C1c1cccc(Cl)c1` [Example 134], the IC50 was 4.89 µM.
On the same count and under the same terms, the same measure for `O=C1O/C(=C\c2cccc(-c3cc(Cl)cc(Cl)c3)c2)C(O)=C1c1cc(Cl)cc(Cl)c1` [Example 136]: 4.18 µM; for `O=C1O/C(=C\c2ccccc2-c2ccc(Cl)cc2)C(O)=C1c1ccc(Cl)cc1` [Example 137]: 7.33 µM.
On the same count and under the same terms, the same measure for `O=C1O/C(=C\c2ccc(Cl)cc2)C(O)=C1c1ccc(-c2ccccc2)c(F)c1` [Example 138]: 7.64 µM.
In the case of `O=C1O/C(=C\c2ccccc2-c2cccc(Cl)c2)C(O)=C1c1cccc(Cl)c1` [Example 140], the IC50 is 7.33 µM.
Still for that read-out and setting: the same measure for `O=C1O/C(=C\c2ccccc2-c2ccc(Cl)c(Cl)c2)C(O)=C1c1ccc(Cl)c(Cl)c1` [Example 141]: 4.18 µM; for `O=C1O/C(=C\c2ccc(-c3ccccc3)cc2)C(O)=C1c1csc2ccccc12` [Example 143]: 10.1 µM.
Consider `O=C1O/C(=C\c2ccc(-c3ccccc3)cc2)C(O)=C1c1cccs1` [Example 144], for which the IC50 was 28.9 µM.

The target in the next assay is T2, S. aureus Uridine-diphosphate-N-acetvimuramoyl: L-alanine lipase, MurC (Staphylococcus aureus, UniProt Q2FXJ0).
T2 sequence (Q2FXJ0 1-437): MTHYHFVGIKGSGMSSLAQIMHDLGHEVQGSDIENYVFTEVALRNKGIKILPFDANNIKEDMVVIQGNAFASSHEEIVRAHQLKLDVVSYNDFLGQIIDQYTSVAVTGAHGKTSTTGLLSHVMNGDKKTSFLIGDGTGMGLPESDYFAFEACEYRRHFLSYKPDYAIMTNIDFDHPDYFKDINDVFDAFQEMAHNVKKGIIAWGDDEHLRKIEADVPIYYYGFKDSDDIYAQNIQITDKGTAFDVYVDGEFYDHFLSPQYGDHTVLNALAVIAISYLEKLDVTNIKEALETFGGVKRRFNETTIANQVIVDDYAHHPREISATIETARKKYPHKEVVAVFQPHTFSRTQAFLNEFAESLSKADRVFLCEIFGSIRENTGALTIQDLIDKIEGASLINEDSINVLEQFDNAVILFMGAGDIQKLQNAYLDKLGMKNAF
As to the kind of experiment: biochemical. The following applies: (S) S. aureus enzyme. The method in brief:
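MurC assay: enzyme (E. coli 100 μg/mL, S. aureus 70 μg/mL stock) with L-Ala and test compound, pre-incubated 10 min at 23 °C, then UDP-MurNac added, 10 min at 37 °C. Phosphate released detected by malachite green–molybdate at 660 nm; IC50 by linear regression.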
For `O=C1O/C(=C\c2cc(C(F)(F)F)ccc2Cl)C(O)=C1c1ccc(N2CCOCC2)c(F)c1` [Example 142], the “MurC IC50” value is >25 (S) μg/mL.

The assay is the same for the next values; noted with them: (S) S. aureus enzyme; read-out: MurC IC50 (converted).
Take `O=C1O/C(=C\c2cccc(-c3cccc(Cl)c3)c2)C(O)=C1c1cccc(Cl)c1` [Example 134]: the IC50 is 51.3 µM.
For the molecule `O=C1O/C(=C\c2cccc(-c3cc(Cl)cc(Cl)c3)c2)C(O)=C1c1cc(Cl)cc(Cl)c1` [Example 136], the IC50 was over 52.3 µM.
For `O=C1O/C(=C\c2ccccc2-c2ccc(Cl)cc2)C(O)=C1c1ccc(Cl)cc1` [Example 137], the IC50 is 56.2 µM.
As for `O=C1O/C(=C\c2ccc(Cl)cc2)C(O)=C1c1ccc(-c2ccccc2)c(F)c1` [Example 138], the IC50 was 20.4 µM.
For `O=C1O/C(=C\c2ccccc2-c2cccc(Cl)c2)C(O)=C1c1cccc(Cl)c1` [Example 140], the IC50 was 19.5 µM.
Take `O=C1O/C(=C\c2ccccc2-c2ccc(Cl)c(Cl)c2)C(O)=C1c1ccc(Cl)c(Cl)c1` [Example 141]: the IC50 was over 52.3 µM.
Consider `O=C1O/C(=C\c2ccc(-c3ccccc3)cc2)C(O)=C1c1csc2ccccc12` [Example 143], for which the half-maximal inhibitory concentration (IC50) was 12.6 µM.
As to `O=C1O/C(=C\c2ccc(-c3ccccc3)cc2)C(O)=C1c1cccs1` [Example 144], the IC50 was 28.9 µM.
For `O=C1O/C(=C\c2cccc3ccccc23)C(O)=C1c1ccc(-c2ccccc2)cc1` [R=H, R1=4-biphenyl, R2=1-naphthyl], the IC50 was 48.7 µM.

A further assay concerns Streptococci. Briefly: Minimum inhibitory concentration, microdilution broth method, streptococci. The class given is cell-based. The following applies: Mueller-Hinton broth with 5% horse blood, 18-22 hours at 35° C. Put shortly: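 Broth microdilution per NCCLS M7-A5 (2000). Staphylococci and enterococci grown in Mueller-Hinton broth; streptococci in Mueller-Hinton broth with 5% horse blood (LHB). Panel includes recent clinical isolates resistant to methicillin, penicillin and/or vancomycin.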
(In general: Broth dilution looks for growth in wells or tubes with falling amounts of substance.)
For `O=C1O/C(=C\c2cc(C(F)(F)F)ccc2Cl)C(O)=C1c1ccc(N2CCOCC2)c(F)c1` [Example 142], the “MIC S. pneumo GC 1894” value is 8 µg/mL (≈ 17 µM).

The same assay, now with this note: S. pneumo GC 1894; Mueller-Hinton broth with 5% horse blood, 18-22 hours at 35° C.
Usually MIC stands for the least concentration at which growth counts as inhibited. Low readings indicate greater potency, high ones weaker potency. The molecule `O=C1O/C(=C\c2cccc(-c3cccc(Cl)c3)c2)C(O)=C1c1cccc(Cl)c1` [Example 134] had an MIC of 1 µg/mL (≈ 2.44 µM).
Consider `O=C1O/C(=C\c2cccc(-c3cc(Cl)cc(Cl)c3)c2)C(O)=C1c1cc(Cl)cc(Cl)c1` [Example 136], for which 0.25 µg/mL (≈ 0.523 µM) was the least that counted as inhibitory (MIC).
The same measure, in the same setting: the result for `O=C1O/C(=C\c2ccccc2-c2ccc(Cl)cc2)C(O)=C1c1ccc(Cl)cc1` [Example 137] reads 2 µg/mL (≈ 4.89 µM); that for `O=C1O/C(=C\c2ccc(Cl)cc2)C(O)=C1c1ccc(-c2ccccc2)c(F)c1` [Example 138], 0.5 µg/mL (≈ 1.27 µM); that for `O=C1O/C(=C\c2ccccc2-c2cccc(Cl)c2)C(O)=C1c1cccc(Cl)c1` [Example 140], 1 µg/mL (≈ 2.44 µM).
For the molecule `O=C1O/C(=C\c2ccccc2-c2ccc(Cl)c(Cl)c2)C(O)=C1c1ccc(Cl)c(Cl)c1` [Example 141], the MIC is under 0.125 µg/mL.
On to `O=C1O/C(=C\c2ccc(-c3ccccc3)cc2)C(O)=C1c1csc2ccccc12` [Example 143], for which it took 1 µg/mL (≈ 2.52 µM) to inhibit growth (MIC).
Still for that read-out and setting: the same measure for `O=C1O/C(=C\c2ccc(-c3ccccc3)cc2)C(O)=C1c1cccs1` [Example 144]: 2 µg/mL (≈ 5.77 µM); for `O=C1O/C(=C\c2cccc3ccccc23)C(O)=C1c1ccc(-c2ccccc2)cc1` [R=H, R1=4-biphenyl, R2=1-naphthyl]: 1 µg/mL (≈ 2.56 µM).

The values above are taken from patent US7495027B2, “3-aryl-4-hydroxyfuranone compounds and the human and animal health use thereof” (Wyeth, priority 2003, dated 2009).
